Results taken from patent publication US20110178104A1, “Anti-Heparin Compounds” (POLYMEDIX INC., priority 2010, published 2011).
pEC50: −log10 of the molar value.

What was measured:
enoxaparin (ENOX) = assay: FXa chromogenic assay (absence of plasma), enoxaparin; conditions: enoxaparin 0.1 μg/mL, absence of plasma
fondaparinux (FONDAPX) = assay: FXa chromogenic assay (absence of plasma), fondaparinux; conditions: fondaparinux 0.02 μg/mL, absence of plasma
Unfractionated heparin = assay: aPTT clotting assay, UFH 0.4 U/mL in plasma (Example 10); type: biochemical; conditions: unfractionated heparin 0.4 U/mL in plasma; aPTT clotting
Method: aPTT clotting Assay: Unfractionated heparin was mixed with plasma at a final concentration of 0.4 U/mL (or concentration which increases aPTT time to between 120 and 300 seconds). […] The ACL Elite Hemostasis analyzer (Beckman Coulter™) was used to add aPTT reagent (HemosIL SynthASil) to supplemented plasma. Clotting was initiated by addition of CaCl2 and time to clot was recorded.

fondaparinux = assay: FXa amidolytic assay (Example 10), fondaparinux; conditions: read-out: Fondap FXa EC50; fondaparinux 0.02 μg/mL; human antithrombin, bovine Factor Xa
tinzaparin = assay: FXa amidolytic assay (Example 10), tinzaparin; conditions: read-out: Tinzap FXa EC50; tinzaparin 0.1 ug/ml; human antithrombin, bovine Factor Xa
enoxaparin = assay: FXa amidolytic assay (Example 10), enoxaparin; conditions: read-out: Enox FXa EC50; enoxaparin 0.1 ug/ml; human antithrombin, bovine Factor Xa

SMILES	ENOX (FXa) EC50 (enoxaparin (ENOX)) [µg/mL]	FONDAPX (FXa) EC50 (fondaparinux (FONDAPX))	pEC50 (Unfractionated heparin)	pEC50 (fondaparinux)	pEC50 (tinzaparin)	pEC50 (enoxaparin)
COc1ccc(NC(=O)[C@@H](CCCNC(=N)N)NC(=O)c2cc(NC(=O)[C@@H](CCCNC(=N)N)NC(=O)c3cc(NC(=O)[C@@H](CCCNC(=N)N)NC(=O)c4cc(NC(=O)[C@@H](C)N)ccc4OC)ccc3OC)ccc2OC)cc1C(=O)NCCCCCN [Compound 55]	0.18	4.16 µg/mL	–	–	–	–
COc1ccc(NC(=O)[C@H](CCCN)NC(=O)c2cc(NC(=O)[C@H](CCCN)NC(=O)c3cc(NC(=O)[C@H](CCCN)NC(=O)c4cc(NC(=O)[C@@H](N)CCCN)ccc4OC)ccc3OC)ccc2OC)cc1C(N)=O [Compound 89]	16.70	–	–	–	–	–
COc1ccc(NC(=O)[C@@H](CCCNC(=N)N)NC(=O)c2cc(NC(=O)[C@@H](CCCNC(=N)N)NC(=O)c3cc(NC(=O)[C@@H](CCCNC(=N)N)NC(=O)c4cc(NC(=O)[C@@H](C)N)ccc4OC)ccc3OC)ccc2OC)cc1C(=O)NCCN [Compound 54]	0.22	5.92 µg/mL	–	–	–	–
COc1ccc(NC(=O)[C@@H](CCCNC(=N)N)NC(=O)c2cc(NC(=O)[C@@H](CCCNC(=N)N)NC(=O)c3cccc(NC(=O)[C@@H](CCCNC(=N)N)NC(=O)c4cccc(NC(=O)[C@H](N)CCCNC(=N)N)c4)c3)ccc2OC)cc1C(N)=O [Compound 22]	0.56	7.63 µg/mL	–	–	–	–
COc1ccc(NC(=O)[C@H](N)CCCNC(=N)N)cc1C(=O)N[C@H](CCCNC(=N)N)C(=O)Nc1ccc(OC)c(C(=O)N[C@H](CCCNC(=N)N)C(=O)Nc2ccc(OCCNC(=N)N)c(C(=O)N[C@H](CCCNC(=N)N)C(=O)Nc3ccc(OCCNC(=N)N)c(C(N)=O)c3)c2)c1 [Compound 10]	1.43	–	–	–	–	–
COc1ccc(NC(=O)[C@@H](CCCNC(=N)N)NC(=O)c2cc(NC(=O)[C@@H](CCCNC(=N)N)NC(=O)c3cc(NC(=O)[C@@H](CCCNC(=N)N)NC(=O)c4cc(NC(=O)[C@@H](C)NC(=O)CCCCNC(=N)N)ccc4OC)ccc3OC)ccc2OC)cc1C(=O)NCCCCCN [Compound 61]	0.11	2.99 µg/mL	–	–	–	–
COc1ccc(NC(=O)[C@@H](CCCNC(=N)N)NC(=O)c2cc(NC(=O)[C@@H](CCCNC(=N)N)NC(=O)c3cc(NC(=O)[C@@H](CCCNC(=N)N)NC(=O)c4cc(NC(=O)[C@@H](C)NC(C)=O)ccc4OC)ccc3OC)ccc2OC)cc1C(=O)NCCN [Compound 56]	0.43	5.24 µg/mL	–	–	–	–
COc1ccc(NC(=O)[C@@H](C)NC(=O)c2cc(NC(=O)[C@@H](CCCNC(=N)N)NC(=O)c3cc(NC(=O)[C@@H](CCCNC(=N)N)NC(=O)c4cc(NC(=O)[C@H](N)CCCNC(=N)N)ccc4OC)ccc3OC)ccc2OC)cc1C(N)=O [Compound 13]	0.88	6.72 µg/mL	–	–	–	–
N=C(N)NCCC[C@@H](N)C(=O)Nc1ccc(F)c(C(=O)N[C@H](CCCNC(=N)N)C(=O)Nc2ccc(F)c(C(=O)N[C@H](CCCNC(=N)N)C(=O)Nc3ccc(F)c(C(=O)N[C@H](CCCNC(=N)N)C(=O)Nc4ccc(F)c(C(N)=O)c4)c3)c2)c1 [Compound 23]	3.68	18.01 µg/mL	–	–	–	–
N=C(N)NCCC[C@@H](N)C(=O)Nc1ccc(OCCNC(=N)N)c(C(=O)N[C@H](CCCNC(=N)N)C(=O)Nc2ccc(OCCNC(=N)N)c(C(=O)N[C@H](CCCNC(=N)N)C(=O)Nc3ccc(OCCNC(=N)N)c(C(=O)N[C@H](CCCNC(=N)N)C(=O)Nc4ccc(OCCNC(=N)N)c(C(N)=O)c4)c3)c2)c1 [Compound 31]	0.72	–	–	–	–	–
COc1ccc(NC(=O)[C@H](CCCNC(=N)N)NC(=O)c2cc(NC(=O)[C@H](CCCNC(=N)N)NC(=O)c3cc(NC(=O)[C@H](CCCNC(=N)N)NC(=O)c4cc(NC(C)=O)ccc4OC)ccc3OC)ccc2OC)cc1C(=O)NCCC(=O)O [Compound 300]	–	–	5.46	6.34	6.51	6.57
COc1ccc(NC(=O)[C@H](CCC(=O)O)NC(=O)c2cc(NC(=O)[C@H](CCCCN)NC(=O)c3cc(NC(=O)[C@H](CCCCN)NC(=O)c4cc(NC(=O)[C@@H](N)CCCCN)ccc4OC)ccc3OC)ccc2OC)cc1C(N)=O [Compound 315]	–	–	5.69	< 5.00	6.31	5.75
COc1ccc(NC(=O)[C@@H](CCCNC(=N)N)NC(=O)c2cc(NC(=O)[C@@H](CCCNC(=N)N)NC(=O)c3cc(NC(=O)[C@@H](CCCNC(=N)N)NC(=O)c4cc(NC(C)=O)ccc4OC)ccc3OC)ccc2OC)cc1C(=O)NCCC(=O)O [Compound 295]	–	–	5.40	6.41	6.49	6.51
COc1ccc(NC(=O)[C@H](CCCCN)NC(=O)c2cc(NC(=O)[C@H](CCCCN)NC(=O)c3cc(NC(=O)[C@H](CCCCN)NC(=O)c4cccc(N(C)C(=O)[C@@H](N)CCCCN)c4)ccc3OC)ccc2OC)cc1C(N)=O [Compound 242]	–	–	5.86	< 5.00	< 5.30	< 5.30
COc1ccc(NC(=O)[C@H](CCCCN)NC(=O)c2cc(NC(=O)[C@H](CCCCN)NC(=O)c3cc(NC(=O)[C@H](CCCCN)NC(=O)c4cc(NC(=O)[C@@H](N)CCCNC(N)=O)ccc4OC)ccc3OC)ccc2OC)cc1C(N)=O [Compound 256]	–	–	5.84	5.60	6.82	6.63
COc1ccc(NC(=O)[C@H](CCCCN)NC(=O)c2cc(NC(=O)[C@H](CCCCN)NC(=O)c3cc(NC(=O)[C@H](CCCCN)NC(=O)c4cc(NC(=O)[C@@H](N)CCCCN)ccc4OC)ccc3SC)ccc2OC)cc1C(N)=O [Compound 251]	–	–	< 5.00	< 5.00	< 5.30	< 5.30

Results, then the compound that gave them:

ENOX (FXa) EC50 (enoxaparin (ENOX)) [µg/mL]	FONDAPX (FXa) EC50 (fondaparinux (FONDAPX))	pEC50 (Unfractionated heparin)	pEC50 (fondaparinux)	pEC50 (tinzaparin)	pEC50 (enoxaparin)	SMILES
0.92	7.84 µg/mL	–	–	–	–	COc1ccc(NC(=O)[C@@H](CCCNC(=N)N)NC(=O)c2cc(NC(=O)[C@@H](CCCNC(=N)N)NC(=O)c3cc(NC(=O)[C@@H](C)NC(=O)c4cc(NC(=O)[C@H](N)CCCNC(=N)N)ccc4OC)ccc3OC)ccc2OC)cc1C(N)=O [Compound 15]
30.00	inactive	–	–	–	–	COc1ccc(NC(=O)[C@@H](CCCCN)NC(=O)c2cc(NC(=O)[C@@H](CCCNC(=N)N)NC(=O)c3cc(NC(=O)[C@@H](CCCCN)NC(=O)c4cc(NC(=O)[C@H](N)CCCCN)ccc4OC)ccc3OC)ccc2OC)cc1C(N)=O [Compound 32]
0.78	8.33 µg/mL	–	–	–	–	COc1ccc(NC(=O)C(CCCCN)NC(=O)c2cc(NC(=O)C(CCCCN)NC(=O)c3cc(NC(=O)C(CCCCN)NC(=O)c4cc(NC(=O)C(CCCCN)NC(=N)N)ccc4OC)ccc3OC)ccc2OC)cc1C(N)=O (centres unmarked) [Compound 29]
0.97	10.36 µg/mL	–	–	–	–	COc1ccc(NC(=O)[C@@H](CCCNC(=N)N)NC(=O)c2cc(NC(=O)[C@@H](CCCNC(=N)N)NC(=O)c3cc(NC(=O)[C@@H](CCCNC(=N)N)NC(=O)c4cc(NC(=O)[C@H](N)CCCNC(=N)N)ccc4F)ccc3F)ccc2OC)cc1C(N)=O [Compound 25]
0.07	0.77 µg/mL	–	–	–	–	COc1ccc(NC(=O)[C@@H](CCCNC(=N)N)NC(=O)c2cc(NC(=O)[C@@H](CCCNC(=N)N)NC(=O)c3cc(NC(=O)[C@@H](CCCNC(=N)N)NC(=O)c4cc(NC(=O)[C@H](N)CCCNC(N)=O)ccc4OC)ccc3OC)ccc2OC)cc1C(N)=O [Compound 82]
0.13	4.53 µg/mL	–	–	–	–	COc1ccc(NC(=O)[C@@H](CCCNC(=N)N)NC(=O)c2cc(NC(=O)[C@@H](CCCNC(=N)N)NC(=O)c3cc(NC(=O)[C@@H](CCCNC(=N)N)NC(=O)c4cc(NC(=O)[C@@H](C)NC(=O)CCN)ccc4OC)ccc3OC)ccc2OC)cc1C(=O)NCCN [Compound 59]
0.17	3.25 µg/mL	–	–	–	–	COc1ccc(NC(=O)[C@@H](CCCNC(=N)N)NC(=O)c2cc(NC(=O)[C@@H](CCCNC(=N)N)NC(=O)c3cc(NC(=O)[C@@H](CCCNC(=N)N)NC(=O)c4cc(NC(=O)[C@@H](C)NC(=O)CCCCNC(=N)N)ccc4OC)ccc3OC)ccc2OC)cc1C(=O)NCCN [Compound 57]
0.57	–	–	–	–	–	COc1ccc(NC(=O)[C@H](N)CCCNC(=N)N)cc1C(=O)N[C@H](CCCNC(=N)N)C(=O)Nc1ccc(OC)c(C(=O)N[C@H](CCCNC(=N)N)C(=O)Nc2ccc(OC)c(C(=O)N[C@H](CCCNC(=N)N)C(=O)Nc3ccc(OCCNC(=N)N)c(C(N)=O)c3)c2)c1 [Compound 18]
–	–	5.37	5.40	6.91	6.62	COc1ccc(NC(=O)[C@H](CCCCN)NC(=O)c2cc(NC(=O)[C@H](CCCCN)NC(=O)c3cc(NC(=O)[C@H](CCCCN)NC(=O)c4cc(NC(=O)[C@@H](N)CCCCN)cc(C(F)(F)F)c4)ccc3OC)ccc2OC)cc1C(N)=O [Compound 239]
–	–	< 5.00	< 5.00	< 5.30	< 5.30	COc1cc(OC)c(C(=O)N[C@H]2CC[C@@H](NC(=O)c3cc(C(=O)N4CCC(CN)CC4)c(OC)cc3OC)CC2)cc1C(=O)N[C@H]1CC[C@@H](NC(=O)c2cc(C(=O)N3CCC(CN)CC3)c(OC)cc2OC)CC1 [Compound 415]
–	–	5.61	5.98	6.75	6.56	COc1ccc(NC(=O)[C@@H](CCC(=O)O)NC(=O)c2cc(NC(=O)[C@@H](CCCNC(=N)N)NC(=O)c3cc(NC(=O)[C@@H](CCCNC(=N)N)NC(=O)c4cc(NC(=O)[C@H](N)CCCNC(=N)N)ccc4OC)ccc3OC)ccc2OC)cc1C(N)=O [Compound 319]
